According to PubChem BioAssay AID2060493 (Molecular Pharmacology Branch, DTP, NCI, 2025):

System: 616215-338-R-J1-PDC tumor spheroids, viability
Assay: Anticancer human tumor 616215-338-R-J1-PDC patient-derived colon adenocarcinoma cell line growth inhibition [GQUAD]
Conditions: spheroids with HUVEC and MSC; for IC50: curve of first compound; for viability, T/C: stronger effect = lower value
Description: DNA G-quadruplex Stabilizer Agents in Combinations in Complex Spheroids
A high-throughput screen of multi-cell type tumor spheroids was designed to identify active combinations of DNA G-quadruplex stabilizer agents and targeted small molecules. Complex spheroids include a stromal component modeled by human endothelial cells (HUVEC) and fibroblasts modeled by human mesenchymal stem cells (MSCs). The concentration ranges selected for each drug and investigational agent were based upon clinically achievable concentrations if the clinical Cmax of the agent was known.
Compounds. The drugs and investigational agents: pidnarulex (CX-5461; NSC782164), APTO-253 (NSC789042), BRACO-19 (NSC847499), peposertib (NSC802822), ceralasertib (NSC780249), elimusertib (NSC800525), camonsertib (NSC841442), AZD-1390 (NSC803789), olaparib (NSC753686), talazoparib (NSC767125), ART-558 (NSC835418), sotorasib (NSC818433), MRTX-1133 (NSC836407), SN-38 (NSC673596), topotecan (NSC609699), etoposide (NSC141540), doxorubicin (NSC123127), gemcitabine (NSC613327), 5-fluorouracil (NSC19893), paclitaxel (NSC125973), vemurafenib (NSC761431), panobinostat (NSC761190), R-306465 (JNJ-16241199; NSC773264), adavosertib (NSC754352), TP-3654 (NSC805149), carboplatin (NSC241240), KSQ-4279 (NSC840948), and staurosporine (NSC755774) were obtained from the National Cancer Institute (NCI) Developmental Therapeutics Program Chemical Repository (34). The FDA-approved anticancer drug set is available from the NCI Developmental Therapeutics Program. […] The stock solutions were prepared in dimethyl sulfoxide (DMSO, Sigma-Aldrich, St. Louis, MO, cat. D2650) at 800-fold the tested concentration and stored at -70 degrees C prior to their use. All drugs and investigational agents were tested over a range starting from a high concentration at or near the clinical Cmax and decreasing in half-log increments. If the clinical Cmax for an agent had not been determined, the highest concentration tested was 10 microM.
2.3 Cell Culture. All cells were maintained in an incubator at 37 degrees C and 5% CO2 with 95% humidity. The PDC lines were cultured according to standard operating procedures established by the NCI PDMR. All PDCs were thawed and cultured in Matrigel-coated flasks prepared with a working solution of 1X Ham's F-12 nutrient mix, without supplementation (Invitrogen, cat. 11765054), 100 U/mL penicillin-streptomycin (Invitrogen, cat. 15140122), and 2.5% Matrigel (Corning Inc., cat. 354248) for the first three passages. The 857933-349-R-J2-PDC line was cultured in 6C/Colon 1B media, which includes advanced DMEM/F-12 (Thermo Fisher Scientific, cat. 12634028), 10 mM HEPES (Thermo Fisher Scientific, cat. 15630080), 1X GlutaMAX supplement (Thermo Fisher Scientific, cat. 35050061), 0.1 mg/mL primocin (InvivoGen, cat. ant-pm-2), 10% defined fetal bovine serum, heat inactivated (HyClone Laboratories Inc., cat. SH30070.03HI), 50% L-WRN conditioned media (ATCC, cat. CRL-3276), 1.25 mM N-Acetyl-L-cysteine (Sigma-Aldrich, cat. A9165), 10 mM nicotinamide (Sigma-Aldrich, cat. N0636), 1X B-27 supplement (Thermo Fisher Scientific, cat. 17504044), 1X N-2 supplement (Thermo Fisher Scientific, cat. 17502048), 10 microM Y-27632 dihydrochloride (Tocris Bioscience, cat. 1254), and 50 ng/mL human EGF recombinant protein (Thermo Fisher Scientific, cat. PHG0311). The 485176-168-R4-J1-PDC line was cultured in Panc media, which includes all 6C/Colon 1B media components plus 100 ng/mL human FGF-10 (Thermo Fisher Scientific, cat. 100-26), 500 nM SB-431542 (Selleckchem, cat. S1067), and gastrin (Tocris, cat. 3006).
[…]
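Note: spheroids exposed to agents for 7 days before readout.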
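Throughout, for viability, T/C: percent viability relative to DMSO vehicle control wells taken as 100%.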

COc1ncnc(C2CC2)c1-c1ncc2cnn(Cc3ccc(-c4nc(C(F)(F)F)cn4C(C)C)cc3)c2n1 + CN(C)c1ccc(Nc2c3ccc(NC(=O)CCN4CCCC4)cc3nc3cc(NC(=O)CCN4CCCC4)ccc23)cc1
IC50 (second compound 0.0316 µM): > 10 µM
IC50 (second compound 0.1 µM): > 10 µM
IC50 (second compound 0.316 µM): > 10 µM
IC50 (second compound 1 µM): > 10 µM
IC50 (second compound 3.16 µM): > 10 µM
IC50 (second compound 10 µM): 9.35 µM
viability, T/C (second compound 0.0316 µM, first compound 0.0316 µM): 114%
viability, T/C (second compound 0.0316 µM, first compound 0.1 µM): 101%
viability, T/C (second compound 0.0316 µM, first compound 0.316 µM): 105%
viability, T/C (second compound 0.0316 µM, first compound 1 µM): 96.3%
viability, T/C (second compound 0.0316 µM, first compound 3.16 µM): 109%
viability, T/C (second compound 0.0316 µM, first compound 10 µM): 97.5%
viability, T/C (second compound 0.1 µM, first compound 0.0316 µM): 102%
viability, T/C (second compound 0.1 µM, first compound 0.1 µM): 96.1%
viability, T/C (second compound 0.1 µM, first compound 0.316 µM): 100%
viability, T/C (second compound 0.1 µM, first compound 1 µM): 101%
viability, T/C (second compound 0.1 µM, first compound 3.16 µM): 114%
viability, T/C (second compound 0.1 µM, first compound 10 µM): 90.2%
viability, T/C (second compound 0.316 µM, first compound 0.0316 µM): 106%
viability, T/C (second compound 0.316 µM, first compound 0.1 µM): 95.3%
viability, T/C (second compound 0.316 µM, first compound 0.316 µM): 96.9%
viability, T/C (second compound 0.316 µM, first compound 1 µM): 104%
viability, T/C (second compound 0.316 µM, first compound 3.16 µM): 101%
viability, T/C (second compound 0.316 µM, first compound 10 µM): 93.7%
viability, T/C (second compound 1 µM, first compound 0.0316 µM): 101%
viability, T/C (second compound 1 µM, first compound 0.1 µM): 114%
viability, T/C (second compound 1 µM, first compound 0.316 µM): 105%
viability, T/C (second compound 1 µM, first compound 1 µM): 101%
viability, T/C (second compound 1 µM, first compound 3.16 µM): 101%
viability, T/C (second compound 1 µM, first compound 10 µM): 92.1%
viability, T/C (second compound 3.16 µM, first compound 0.0316 µM): 96.4%
viability, T/C (second compound 3.16 µM, first compound 0.1 µM): 91.2%
viability, T/C (second compound 3.16 µM, first compound 0.316 µM): 91.4%
viability, T/C (second compound 3.16 µM, first compound 1 µM): 105%
viability, T/C (second compound 3.16 µM, first compound 3.16 µM): 93.2%
viability, T/C (second compound 3.16 µM, first compound 10 µM): 97.7%
viability, T/C (second compound 10 µM, first compound 0.0316 µM): 91.7%
viability, T/C (second compound 10 µM, first compound 0.1 µM): 85.3%
viability, T/C (second compound 10 µM, first compound 0.316 µM): 97.3%
viability, T/C (second compound 10 µM, first compound 1 µM): 90.3%
viability, T/C (second compound 10 µM, first compound 3.16 µM): 86.2%
viability, T/C (second compound 10 µM, first compound 10 µM): 47.8%
